{"source": "ChEMBL document CHEMBL4477225", "about": "“Development of a cell viability assay to assess drug metabolite structure-toxicity relationships” (Bioorg Med Chem Lett, 2016)", "conditions_in_all_cases": "recombinant enzyme", "key": {"Cytochrome P450 3A4 [1]": {"target": "T1, Cytochrome P450 3A4 (Homo sapiens, UniProt P08684)", "T1 sequence (P08684 whole entry)": "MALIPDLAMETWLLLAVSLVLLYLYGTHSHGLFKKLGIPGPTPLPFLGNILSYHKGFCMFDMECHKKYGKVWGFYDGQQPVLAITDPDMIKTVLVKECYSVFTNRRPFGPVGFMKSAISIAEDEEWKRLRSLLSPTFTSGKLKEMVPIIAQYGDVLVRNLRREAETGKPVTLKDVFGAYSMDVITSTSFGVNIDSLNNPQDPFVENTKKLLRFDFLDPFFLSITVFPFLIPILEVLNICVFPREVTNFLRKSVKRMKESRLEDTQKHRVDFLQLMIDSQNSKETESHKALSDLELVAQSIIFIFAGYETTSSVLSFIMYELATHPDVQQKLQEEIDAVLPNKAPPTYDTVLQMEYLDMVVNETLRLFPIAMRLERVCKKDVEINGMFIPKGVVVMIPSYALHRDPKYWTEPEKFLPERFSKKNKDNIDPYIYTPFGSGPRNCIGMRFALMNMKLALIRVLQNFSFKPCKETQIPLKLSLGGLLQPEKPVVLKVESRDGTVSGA", "assay": "Drug activation in human Hep3B cells assessed as human CYP3A4-mediated drug metabolism-induced cytotoxicity measured as decrease in cell viability at 209.7 uM pre-incubated with BSO for 18 hrs followed by incubation with compound for 3 hrs in presence of NADPH measured after 24 hrs in absence of compound, CYP3A4 and NADPH by cell titer-glo luminescence assay relative to BSO alone", "type": "ADME, cell-based"}, "Cytochrome P450 2D6 [2]": {"target": "T2, Cytochrome P450 2D6 (Homo sapiens, UniProt P10635)", "T2 sequence (P10635 whole entry)": "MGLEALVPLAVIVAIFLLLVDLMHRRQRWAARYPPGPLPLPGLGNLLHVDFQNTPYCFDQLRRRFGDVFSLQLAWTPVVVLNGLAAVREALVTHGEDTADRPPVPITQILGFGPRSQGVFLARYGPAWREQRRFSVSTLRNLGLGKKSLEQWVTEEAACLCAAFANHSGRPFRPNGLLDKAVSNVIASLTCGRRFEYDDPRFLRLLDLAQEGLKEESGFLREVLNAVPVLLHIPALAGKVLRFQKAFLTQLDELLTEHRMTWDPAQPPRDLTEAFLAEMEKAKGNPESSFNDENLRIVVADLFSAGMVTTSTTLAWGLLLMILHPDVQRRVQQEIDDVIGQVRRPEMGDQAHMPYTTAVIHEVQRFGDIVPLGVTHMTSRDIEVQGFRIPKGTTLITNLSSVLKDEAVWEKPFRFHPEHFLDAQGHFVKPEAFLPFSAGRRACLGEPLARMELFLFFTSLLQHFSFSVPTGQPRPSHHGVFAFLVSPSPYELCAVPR", "assay": "Drug activation in human Hep3B cells assessed as human CYP2D6-mediated drug metabolism-induced cytotoxicity measured as decrease in cell viability at 156.7 uM pre-incubated with BSO for 18 hrs followed by incubation with compound for 3 hrs in presence of NADPH measured after 24 hrs in absence of compound, CYP3A4 and NADPH by cell titer-glo luminescence assay relative to BSO alone", "type": "ADME, cell-based"}, "Cytochrome P450 2C9 [3]": {"target": "T3, Cytochrome P450 2C9 (Homo sapiens, UniProt P11712)", "T3 sequence (P11712 whole entry)": "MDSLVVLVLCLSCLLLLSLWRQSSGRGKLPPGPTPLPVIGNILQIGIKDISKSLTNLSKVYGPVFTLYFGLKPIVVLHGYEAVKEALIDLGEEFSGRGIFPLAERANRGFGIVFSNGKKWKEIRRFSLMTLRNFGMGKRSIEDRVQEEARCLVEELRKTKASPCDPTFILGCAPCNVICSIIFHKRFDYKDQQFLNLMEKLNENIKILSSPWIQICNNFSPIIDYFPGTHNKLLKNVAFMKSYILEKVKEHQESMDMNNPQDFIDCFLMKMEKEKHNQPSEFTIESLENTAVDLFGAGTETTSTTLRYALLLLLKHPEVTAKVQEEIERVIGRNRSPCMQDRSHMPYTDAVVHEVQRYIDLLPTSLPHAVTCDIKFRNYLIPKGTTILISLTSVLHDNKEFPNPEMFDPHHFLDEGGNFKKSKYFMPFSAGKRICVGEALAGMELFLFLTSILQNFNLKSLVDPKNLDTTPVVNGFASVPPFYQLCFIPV", "assay": "Drug activation in human Hep3B cells assessed as human CYP2C9-mediated drug metabolism-induced cytotoxicity measured as decrease in cell viability at 300 uM pre-incubated with BSO for 18 hrs followed by incubation with compound for 3 hrs in presence of NADPH measured after 24 hrs in absence of compound, CYP3A4 and NADPH by cell titer-glo luminescence assay relative to BSO alone"}, "Cytochrome P450 3A4 [4]": {"target": "T1, Cytochrome P450 3A4", "assay": "Drug activation in human Hep3B cells assessed as human CYP3A4-mediated drug metabolism-induced cytotoxicity measured as decrease in cell viability at 68 uM pre-incubated with BSO for 18 hrs followed by incubation with compound for 3 hrs in presence of NADPH measured after 24 hrs in absence of compound, CYP3A4 and NADPH by cell titer-glo luminescence assay relative to BSO alone", "type": "ADME, cell-based"}, "Cytochrome P450 2D6 [5]": {"target": "T2, Cytochrome P450 2D6", "assay": "Drug activation in human Hep3B cells assessed as human CYP2D6-mediated drug metabolism-induced cytotoxicity measured as decrease in cell viability at 80.4 uM pre-incubated with BSO for 18 hrs followed by incubation with compound for 3 hrs in presence of NADPH measured after 24 hrs in absence of compound, CYP3A4 and NADPH by cell titer-glo luminescence assay relative to BSO alone", "type": "ADME, cell-based"}, "Cytochrome P450 2C9 [6]": {"target": "T3, Cytochrome P450 2C9", "assay": "Drug activation in human Hep3B cells assessed as human CYP2C9-mediated drug metabolism-induced cytotoxicity measured as decrease in cell viability at 70.1 uM pre-incubated with BSO for 18 hrs followed by incubation with compound for 3 hrs in presence of NADPH measured after 24 hrs in absence of compound, CYP3A4 and NADPH by cell titer-glo luminescence assay relative to BSO alone", "type": "ADME, cell-based"}, "Cytochrome P450 2D6 [7]": {"target": "T2, Cytochrome P450 2D6", "assay": "Drug activation in human Hep3B cells assessed as human CYP2D6-mediated drug metabolism-induced cytotoxicity measured as decrease in cell viability at 21.3 uM pre-incubated with BSO for 18 hrs followed by incubation with compound for 3 hrs in presence of NADPH measured after 24 hrs in absence of compound, CYP3A4 and NADPH by cell titer-glo luminescence assay relative to BSO alone", "type": "ADME, cell-based"}, "Cytochrome P450 3A4 [8]": {"target": "T1, Cytochrome P450 3A4", "assay": "Drug activation in human Hep3B cells assessed as human CYP3A4-mediated drug metabolism-induced cytotoxicity measured as decrease in cell viability at 74.4 uM pre-incubated with BSO for 18 hrs followed by incubation with compound for 3 hrs in presence of NADPH measured after 24 hrs in absence of compound, CYP3A4 and NADPH by cell titer-glo luminescence assay relative to BSO alone", "type": "ADME, cell-based"}, "Cytochrome P450 2C9 [9]": {"target": "T3, Cytochrome P450 2C9", "assay": "Drug activation in human Hep3B cells assessed as human CYP2C9-mediated drug metabolism-induced cytotoxicity measured as decrease in cell viability at 51.1 uM pre-incubated with BSO for 18 hrs followed by incubation with compound for 3 hrs in presence of NADPH measured after 24 hrs in absence of compound, CYP3A4 and NADPH by cell titer-glo luminescence assay relative to BSO alone", "type": "ADME, cell-based"}, "Cytochrome P450 3A4 [10]": {"target": "T1, Cytochrome P450 3A4", "assay": "Drug activation in human Hep3B cells assessed as human CYP3A4-mediated drug metabolism-induced cytotoxicity measured as decrease in cell viability at 137.9 uM pre-incubated with BSO for 18 hrs followed by incubation with compound for 3 hrs in presence of NADPH measured after 24 hrs in absence of compound, CYP3A4 and NADPH by cell titer-glo luminescence assay relative to BSO alone", "type": "ADME, cell-based"}, "Cytochrome P450 2D6 [11]": {"target": "T2, Cytochrome P450 2D6", "assay": "Drug activation in human Hep3B cells assessed as human CYP2D6-mediated drug metabolism-induced cytotoxicity measured as decrease in cell viability at 114.4 uM pre-incubated with BSO for 18 hrs followed by incubation with compound for 3 hrs in presence of NADPH measured after 24 hrs in absence of compound, CYP3A4 and NADPH by cell titer-glo luminescence assay relative to BSO alone", "type": "ADME, cell-based"}, "Cytochrome P450 3A4 [12]": {"target": "T1, Cytochrome P450 3A4", "assay": "Drug activation in human Hep3B cells assessed as human CYP3A4-mediated drug metabolism-induced cytotoxicity measured as decrease in cell viability at 22.3 uM pre-incubated with BSO for 18 hrs followed by incubation with compound for 3 hrs in presence of NADPH measured after 24 hrs in absence of compound, CYP3A4 and NADPH by cell titer-glo luminescence assay relative to BSO alone", "type": "ADME, cell-based"}, "Cytochrome P450 2C9 [13]": {"target": "T3, Cytochrome P450 2C9", "assay": "Drug activation in human Hep3B cells assessed as human CYP2C9-mediated drug metabolism-induced cytotoxicity measured as decrease in cell viability at 39 uM pre-incubated with BSO for 18 hrs followed by incubation with compound for 3 hrs in presence of NADPH measured after 24 hrs in absence of compound, CYP3A4 and NADPH by cell titer-glo luminescence assay relative to BSO alone", "type": "ADME, cell-based"}, "Cytochrome P450 2D6 [14]": {"target": "T2, Cytochrome P450 2D6", "assay": "Drug activation in human Hep3B cells assessed as human CYP2D6-mediated drug metabolism-induced cytotoxicity measured as decrease in cell viability at 17.6 uM pre-incubated with BSO for 18 hrs followed by incubation with compound for 3 hrs in presence of NADPH measured after 24 hrs in absence of compound, CYP3A4 and NADPH by cell titer-glo luminescence assay relative to BSO alone", "type": "ADME, cell-based"}, "Cytochrome P450 3A4 [15]": {"target": "T1, Cytochrome P450 3A4", "assay": "Drug activation in human Hep3B cells assessed as human CYP3A4-mediated drug metabolism-induced cytotoxicity measured as decrease in cell viability at 8.7 uM pre-incubated with BSO for 18 hrs followed by incubation with compound for 3 hrs in presence of NADPH measured after 24 hrs in absence of compound, CYP3A4 and NADPH by cell titer-glo luminescence assay relative to BSO alone", "type": "ADME, cell-based"}, "Cytochrome P450 2D6 [16]": {"target": "T2, Cytochrome P450 2D6", "assay": "Drug activation in human Hep3B cells assessed as human CYP2D6-mediated drug metabolism-induced cytotoxicity measured as decrease in cell viability at 12.9 uM pre-incubated with BSO for 18 hrs followed by incubation with compound for 3 hrs in presence of NADPH measured after 24 hrs in absence of compound, CYP3A4 and NADPH by cell titer-glo luminescence assay relative to BSO alone", "type": "ADME, cell-based"}, "Cytochrome P450 2D6 [17]": {"target": "T2, Cytochrome P450 2D6", "assay": "Drug activation in human Hep3B cells assessed as human CYP2D6-mediated drug metabolism-induced cytotoxicity measured as decrease in cell viability at 264.7 uM pre-incubated with BSO for 18 hrs followed by incubation with compound for 3 hrs in presence of NADPH measured after 24 hrs in absence of compound, CYP3A4 and NADPH by cell titer-glo luminescence assay relative to BSO alone", "type": "ADME, cell-based"}, "Cytochrome P450 3A4 [18]": {"target": "T1, Cytochrome P450 3A4", "assay": "Drug activation in human Hep3B cells assessed as human CYP3A4-mediated drug metabolism-induced cytotoxicity measured as decrease in cell viability at 300 uM pre-incubated with BSO for 18 hrs followed by incubation with compound for 3 hrs in presence of NADPH measured after 24 hrs in absence of compound, CYP3A4 and NADPH by cell titer-glo luminescence assay relative to BSO alone"}}}
{"smiles": "O=C(COc1ccc(Cl)cc1)N1CCN(Cc2ccc3c(c2)OCO3)CC1", "note": "[FIPEXIDE]", "values": [{"measurement": "fold change (FC)", "setting": "Cytochrome P450 3A4 [1]", "result": 0.6}, {"measurement": "fold change (FC)", "setting": "Cytochrome P450 2D6 [2]", "result": 0.8}, {"measurement": "FC", "setting": "Cytochrome P450 2C9 [3]", "result": 0.4}]}
{"smiles": "CNCCC(Oc1ccc(C(F)(F)F)cc1)c1ccccc1", "note": "(stereo unspecified) [FLUOXETINE]", "values": [{"measurement": "fold change (FC)", "setting": "Cytochrome P450 3A4 [4]", "result": 0.7}, {"measurement": "fold change (FC)", "setting": "Cytochrome P450 2D6 [5]", "result": 0.6}, {"measurement": "fold change (FC)", "setting": "Cytochrome P450 2C9 [6]", "result": 0.7}]}
{"smiles": "CN(C)CCCN1c2ccccc2CCc2ccccc21", "note": "[IMIPRAMINE]", "values": [{"measurement": "fold change (FC)", "setting": "Cytochrome P450 2D6 [7]", "result": 0.7}, {"measurement": "fold change (FC)", "setting": "Cytochrome P450 3A4 [8]", "result": 0.2}, {"measurement": "fold change (FC)", "setting": "Cytochrome P450 2C9 [9]", "result": 0.3}]}
{"smiles": "CC(C)NNC(=O)c1ccncc1", "note": "[IPRONIAZID]", "values": [{"measurement": "fold change (FC)", "setting": "Cytochrome P450 3A4 [10]", "result": 2.2}, {"measurement": "FC", "setting": "Cytochrome P450 2C9 [3]", "result": 1}, {"measurement": "fold change (FC)", "setting": "Cytochrome P450 2D6 [11]", "result": 2.6}]}
{"smiles": "O=C(c1ccccc1)c1ccc2n1CCC2C(=O)O", "note": "(stereo unspecified) [KETOROLAC]", "values": [{"measurement": "fold change (FC)", "setting": "Cytochrome P450 3A4 [12]", "result": 0.6}, {"measurement": "fold change (FC)", "setting": "Cytochrome P450 2C9 [13]", "result": 0.4}, {"measurement": "fold change (FC)", "setting": "Cytochrome P450 2D6 [14]", "result": 0.8}]}
{"smiles": "O=c1n(CCCN2CCN(c3cccc(Cl)c3)CC2)nc2ccccn12", "note": "[TRAZODONE]", "values": [{"measurement": "fold change (FC)", "setting": "Cytochrome P450 3A4 [15]", "result": 34.4}, {"measurement": "FC", "setting": "Cytochrome P450 2C9 [3]", "result": 1}, {"measurement": "fold change (FC)", "setting": "Cytochrome P450 2D6 [16]", "result": 23.2}]}
{"smiles": "N[C@@H]1[C@H]2CN(c3nc4c(cc3F)c(=O)c(C(=O)O)cn4-c3ccc(F)cc3F)C[C@@H]12", "note": "[TROVAFLOXACIN]", "values": [{"measurement": "fold change (FC)", "setting": "Cytochrome P450 2D6 [17]", "result": 1.1}, {"measurement": "FC", "setting": "Cytochrome P450 3A4 [18]", "result": 1}, {"measurement": "FC", "setting": "Cytochrome P450 2C9 [3]", "result": 1}]}
